According to ChEMBL document CHEMBL4819157, “Synthesis and biological evaluation of novel ligustrazine-chalcone derivatives as potential anti-triple negative breast cancer agents” (Bioorg Med Chem Lett, 2021):
Calls of active or inactive are those of the source. No cut-off for these calls is given here.

What was measured:
[1] = system: MDA-MB-231; assay: Antiproliferation activity against human MDA-MB-231 cells assessed as reduction in cell viability after 72 hrs by CCK8 assay; assay type: functional, cell-based; details: MDA-MB-231, 72 h
[2] = system: HepG2; assay: Antiproliferation activity against human HepG2 cells assessed as reduction in cell viability after 72 hrs by CCK8 assay; assay type: functional, cell-based; details: HepG2, 72 h
[3] = system: MCF7; assay: Antiproliferation activity against human MCF-7 cells assessed as reduction in cell viability after 72 hrs by CCK8 assay; assay type: functional, cell-based; details: MCF7, 72 h
[4] = system: A549; assay: Antiproliferation activity against human A549 cells assessed as reduction in cell viability after 72 hrs by CCK8 assay; assay type: functional, cell-based; details: A549, 72 h
[5] = system: MDA-MB-231; assay: Induction of apoptosis in human MDA-MB-231 cells assessed as early apoptotic cells at 2 times of IC50 by Annexin V-FITC/PI double staining based flow cytometry analysis (reference value: 6.64%); assay type: functional
[6] = system: MDA-MB-231; assay: Inhibition of colony formation in human MDA-MB-231 cells at IC50 concentration upto 72 hrs by plate colony counting assay; assay type: functional, cell-based; details: time hrs <=72, TDE = time-dependent effect
[7] = system: MDA-MB-231; assay: Induction of apoptosis in human MDA-MB-231 cells assessed as late apoptotic cells at 0.5 times of IC50 by Annexin V-FITC/PI double staining based flow cytometry analysis (reference value: 0.00%); assay type: functional
[8] = system: MCF7; assay: Inhibition of colony formation in human MCF-7 cells at IC50 concentration upto 72 hrs by plate colony counting assay; assay type: functional, cell-based; details: time hrs <=72, TDE = time-dependent effect
[9] = Antitumour activity against human MDA-MB-468 cells xenografted in mouse assessed as reduction in Ki67 positive cells at 25 mg/kg, by immunohistochemical analysis (reference value: 76.50 +/- 5.28%); assay type: functional, MDA-MB-231; parameters: scale not given: the % may be the effect or the level left
[10] = system: MDA-MB-231; assay: Induction of apoptosis in human MDA-MB-231 cells assessed as viable cells at IC50 by Annexin V-FITC/PI double staining based flow cytometry analysis (reference value: 93.34%); assay type: functional
[11] = system: MCF7; assay: Inhibition of cell migration in human MCF-7 cells 0.5 to 2 times of IC50 incubated up to 48 hrs by scratch wound healing assay; assay type: functional, cell-based; details: time hrs <=48
[12] = system: MDA-MB-231; assay: Inhibition of colony formation in human MDA-MB-231 cells at 0.25 to 2 times of IC50 concentration incubated for 48 hrs by plate colony counting assay; assay type: functional, cell-based
[13] = system: MCF7; assay: Inhibition of colony formation in human MCF-7 cells at 0.25 to 2 times of IC50 concentration incubated for 48 hrs by plate colony counting assay; assay type: functional, cell-based
[14] = system: MDA-MB-231; assay: Induction of apoptosis in human MDA-MB-231 cells assessed as necrotic cells at IC50 by Annexin V-FITC/PI double staining based flow cytometry analysis (reference value: 0.02%); assay type: functional
[15] = system: MDA-MB-231; assay: Induction of apoptosis in human MDA-MB-231 cells assessed as necrotic cells at 0.5 times of IC50 by Annexin V-FITC/PI double staining based flow cytometry analysis (reference value: 0.02%); assay type: functional
[16] = Antitumour activity against human MDA-MB-468 cells xenografted in mouse assessed as reduction in Ki67 positive cells at 50 mg/kg, by immunohistochemical analysis (reference value: 76.50 +/- 5.28%); assay type: functional, MDA-MB-231; parameters: scale not given: the % may be the effect or the level left
[17] = system: MDA-MB-231; assay: Induction of apoptosis in human MDA-MB-231 cells assessed as necrotic cells at 2 times of IC50 by Annexin V-FITC/PI double staining based flow cytometry analysis (reference value: 0.02%); assay type: functional
[18] = system: MCF-10A; assay: Cytotoxicity against human MCF-10A cells assessed as reduction in cell viability after 72 hrs by CCK8 assay; assay type: cell-based
[19] = system: MDA-MB-231; assay: Induction of cell cycle arrest in human […] cells assessed as decrease in accumulation of cells at G2/M phase at 0.5 to 2 times of IC50 after 48 hrs by propidium iodide staining-based flow cytometric analysis; assay type: functional
[20] = system: MDA-MB-231; assay: Inhibition of cell migration in human MDA-MB-231 cells 0.5 to 2 times of IC50 incubated up to 48 hrs by scratch wound healing assay; assay type: functional, cell-based; details: time hrs <=48
[21] = system: MDA-MB-231; assay: Induction of apoptosis in human MDA-MB-231 cells assessed as late apoptotic cells at 2 times of IC50 by Annexin V-FITC/PI double staining based flow cytometry analysis (reference value: 0.00%); assay type: functional
[22] = system: MDA-MB-231; assay: Induction of apoptosis in human MDA-MB-231 cells assessed as early apoptotic cells at 0.5 times of IC50 by Annexin V-FITC/PI double staining based flow cytometry analysis (reference value: 6.64%); assay type: functional
[23] = Toxicity in mouse xenografted with human MDA-MB-468 cells assessed as effect on body weight at 25 to 75 mg/kg; assay type: organism-based; details: in vivo, dose 25-75 mg/kg
[24] = system: MDA-MB-231; assay: Induction of cell cycle arrest in human […] cells assessed as increase in accumulation of cells at G0/G1 phase at 0.5 to 2 times of IC50 after 48 hrs by propidium iodide staining-based flow cytometric analysis; assay type: functional
[25] = system: MDA-MB-231; assay: Induction of apoptosis in human MDA-MB-231 cells assessed as viable cells at 0.5 times of IC50 by Annexin V-FITC/PI double staining based flow cytometry analysis (reference value: 93.34%); assay type: functional
[26] = system: MDA-MB-231; assay: Induction of apoptosis in human MDA-MB-231 cells assessed as early apoptotic cells at IC50 by Annexin V-FITC/PI double staining based flow cytometry analysis (reference value: 6.64%); assay type: functional
[27] = Antitumour activity against human MDA-MB-468 cells xenografted in mouse assessed as reduction in Ki67 positive cells at 75 mg/kg, by immunohistochemical analysis (reference value: 76.50 +/- 5.28%); assay type: functional, MDA-MB-231; parameters: scale not given: the % may be the effect or the level left
[28] = system: MDA-MB-231; assay: Induction of apoptosis in human MDA-MB-231 cells assessed as viable cells at 2 times of IC50 by Annexin V-FITC/PI double staining based flow cytometry analysis (reference value: 93.34%); assay type: functional
[29] = system: HUVEC; assay: Cytotoxicity against human HUVEC cells assessed as reduction in cell viability after 72 hrs by CCK8 assay; assay type: cell-based
[30] = system: MDA-MB-231; assay: Induction of cell cycle arrest in human […] cells assessed as decrease in accumulation of cells at S phase at 0.5 to 2 times of IC50 after 48 hrs by propidium iodide staining-based flow cytometric analysis; assay type: functional
[31] = system: MDA-MB-231; assay: Induction of apoptosis in human MDA-MB-231 cells assessed as late apoptotic cells at IC50 by Annexin V-FITC/PI double staining based flow cytometry analysis (reference value: 0.00%); assay type: functional

Structure (SMILES): Cc1nc(C)c(/C=C/C(=O)c2ccc(NC(=O)c3ccccc3F)cc2)nc1C
- IC50 [1]: 1.98 µM
- IC50 [2]: 2.04 µM
- IC50 [3]: 1.27 µM
- IC50 [4]: 7.39 µM

Structure (SMILES): COc1cc(OC)cc(C(=O)Nc2ccc(C(=O)/C=C/c3nc(C)c(C)nc3C)cc2)c1
- IC50 [1]: 11.6 µM
- IC50 [2]: 11 µM
- IC50 [3]: 6.27 µM
- IC50 [4]: 10.2 µM

Structure (SMILES): Cc1nc(C)c(/C=C/C(=O)c2ccc(NC(=O)c3ccc(F)cc3F)cc2)nc1C
- IC50 [1]: 1.77 µM
- IC50 [2]: 2.99 µM
- IC50 [3]: 1.61 µM
- IC50 [4]: 2.45 µM

Structure (SMILES): COc1ccc(C(=O)Nc2ccc(C(=O)/C=C/c3nc(C)c(C)nc3C)cc2)cc1
- Activity [5]: 50.96%
- inhibition [6]: Tde
- Activity [7]: 0.65%
- inhibition [8]: Tde
- Activity [9]: 19.51%
- IC50 [1]: 1.6 µM
- Activity [10]: 44.51%
- IC50 [2]: 1.19 µM
- inhibition [11]: Dose-Dependent Effect
- inhibition [12]: Dose-Dependent Effect
- IC50 [3]: 1.41 µM
- inhibition [13]: Dose-Dependent Effect
- Activity [14]: 2.89%
- Activity [15]: 1.54%
- Activity [16]: 11.29%
- Activity [17]: 2.15%
- IC50 [18]: 59.6 µM
- Activity [19]: Active
- inhibition [20]: Dose-Dependent Effect
- IC50 [4]: 4.15 µM
- Activity [21]: 15.92%
- Activity [22]: 25.14%
- Activity [23]: Non-Toxic
- Activity [24]: Active
- Activity [25]: 72.66%
- Activity [26]: 43.98%
- Activity [27]: 8.95%
- Activity [28]: 30.97%
- IC50 [29]: 29.2 µM
- Activity [30]: Active
- Activity [31]: 8.62%

Structure (SMILES): Cc1nc(C)c(/C=C/C(=O)c2ccc(NC(=O)c3ccc(F)cc3)cc2)nc1C
- inhibition [6]: Tde
- inhibition [8]: Tde
- IC50 [1]: 1.67 µM
- IC50 [2]: 2.25 µM
- inhibition [11]: Dose-Dependent Effect
- inhibition [12]: Dose-Dependent Effect
- IC50 [3]: 1.54 µM
- inhibition [13]: Dose-Dependent Effect
- IC50 [18]: 42.9 µM
- inhibition [20]: Dose-Dependent Effect
- IC50 [4]: 4.48 µM
- IC50 [29]: 32.7 µM

Structure (SMILES): Cc1nc(C)c(C)nc1C [LIGUSTRAZINE]
- IC50 [1]: 20.4 µM
- IC50 [2]: 38.2 µM
- IC50 [3]: 29.9 µM
- IC50 [4]: 36.5 µM

Structure (SMILES): COc1cc(C(=O)Nc2ccc(C(=O)/C=C/c3nc(C)c(C)nc3C)cc2)cc(OC)c1OC
- IC50 [1]: 4.74 µM
- IC50 [2]: 4.86 µM
- IC50 [3]: 2.76 µM
- IC50 [4]: 7.35 µM

Structure (SMILES): Cc1ccc(C(=O)Nc2ccc(C(=O)/C=C/c3nc(C)c(C)nc3C)cc2)cc1
- IC50 [1]: 1.78 µM
- IC50 [2]: 5.45 µM
- IC50 [3]: 1.18 µM
- IC50 [4]: 9.99 µM

Structure (SMILES): O=C(/C=C/c1ccc(O)cc1)c1ccc(O)cc1O [ISOLIQUIRITIGENIN]
- IC50 [1]: 10.9 µM
- IC50 [2]: 27.7 µM
- IC50 [3]: 17.7 µM
- IC50 [4]: 52.6 µM

Structure (SMILES): COc1ccc(C(=O)Nc2ccc(C(=O)/C=C/c3nc(C)c(C)nc3C)cc2)cc1OC
- IC50 [1]: 3.36 µM
- IC50 [2]: 2.56 µM
- IC50 [3]: 1.66 µM
- IC50 [4]: 5.06 µM

Structure (SMILES): COc1cc2nccc(Oc3ccc(NC(=O)C4(C(=O)Nc5ccc(F)cc5)CC4)cc3)c2cc1OC [CABOZANTINIB]
- IC50 [1]: 19.7 µM
- IC50 [2]: 15.6 µM
- IC50 [3]: 14.3 µM
- IC50 [4]: 15.2 µM

Structure (SMILES): O=c1[nH]cc(F)c(=O)[nH]1 [FLUOROURACIL]
- IC50 [1]: 5.85 µM
- IC50 [2]: 2.98 µM
- IC50 [3]: 5.44 µM
- IC50 [4]: 2.53 µM

Structure (SMILES): COc1cccc(OC)c1C(=O)Nc1ccc(C(=O)/C=C/c2nc(C)c(C)nc2C)cc1
- IC50 [1]: 3.85 µM
- IC50 [2]: 3.38 µM
- IC50 [3]: 2.47 µM
- IC50 [4]: 8.47 µM

Structure (SMILES): Cc1nc(C)c(/C=C/C(=O)c2ccc(NC(=O)c3ccccc3)cc2)nc1C
- IC50 [1]: 1.84 µM
- IC50 [2]: 1.31 µM
- IC50 [3]: 0.99 µM
- IC50 [4]: 7.27 µM
